Consider three compounds from patent publication US20160347852A1, “Combination therapy of an anti-CD20 antibody with a Bcl-2 inhibitor and a MDM2 inhibitor” (Hoffmann-La Roche Inc., priority 2015, published 2016).

The subject of experiment [1] is human Z138 mantle cell lymphoma cell line. The experiment can be described thus: Antitumor activity of combined treatment, Z138 mantle cell lymphoma xenograft (Example 2). It counts as in vivo, SCID beige mice. The note with it: for Tumor growth inhibition (TGI) on day 32: SCID beige mice, RO5072759 0.5 mg/kg i.p. q7d, GDC-0199 100 mg/kg p.o. daily, RG7388 100 then 80 mg/kg p.o. daily, day 32 after tumor cell inoculation; for Tumor-free animals on Day 125: number of animals out of 9-10 per group; for Median time to event (Days to reach TV of 1500 mm^3): time-to-event analysis until day 125; for Number of animals with reduced tumor growth or non-responder / Number of animals with tumor regrowth: until day 125. The method, then: Type II anti-CD20 antibody B-HH6-B-KV1 GE (=humanized B-Ly1, glycoengineered B-HH6-B-KV1, see WO 2005/044859 and WO 2007/031875) was provided as stock solution (c=9.4 mg/ml) from GlycArt, Schlieren, Switzerland, in histidine, trehalose and polysorbate 20 buffer. The antibody was diluted with PBS prior to in-vivo application. The Bcl-2 inhibitor GDC-0199 was obtained from Genentech Inc., CA, USA. MDM2(4) antagonist RG7388 (RO5503781) was provided by the Small Molecule Process Research and Development unit, Hoffmann-La Roche, Basel, Switzerland.
The human Z138 mantle cell lymphoma cell line was cultured in DMEM supplemented with 10% fetal bovine serum (PAA Laboratories, Austria) and 2 mM L-glutamine at 37° C. in a water-saturated atmosphere at 5% CO2. For in-vivo xenograft experiments the cells were co-injected with Matrigel.
Female SCID beige mice, age 4-5 weeks at arrival (purchased from Charles River, Sulzfeld, Germany), were maintained in the quarantine part of the animal facility for one week and afterwards under specific-pathogen-free condition with daily cycles of 12 h light/12 h darkness according to guidelines (GV-Solas; Felasa; TierschG). The experimental study protocol was reviewed and approved by Roche and the local government (Regierung von Oberbayern; registration no. 55.2-1-54-2531.2-26-09). Diet food (KLIBA NAFAG 3807) and water (filtered) were provided ad libitum.
Animals were monitored daily for clinical symptoms and detection of adverse effects. During the experiment the body weight of animals was checked two times a week and tumor volume was measured by caliper.
Animal treatment started at the day of randomization 18 days after tumor cell inoculation. Humanized type II anti-CD20 antibody RO5072759 B-HH6-B-KV1 GE (obinutuzumab) was administered as single agent i.p. q7d once weekly (day 18, 25, 32) for 3 weeks at a dosage of 0.5 mg/kg. The bcl-2 inhibitor GDC-0199 was given p.o. once daily (from day 18 to day 36) over 19 days at a dosage of 100 mg/kg. The MDM2 antagonist RG7388 (RO5503781) was given p.o. once daily over 5 days at a dosage of 100 mg/kg (active compound) from day 18 to day 22 and was administered over 12 days at a dosage of 80 mg/kg (active compound) from day 25 to day 36. There was no treatment on day 23 and 24. In the combination groups, RO5072759 B-HH6-B-KV1 GE, MDM2(4) and GDC-0199 were administered at the same dosages and on the same days. The corresponding vehicle was administered on the same days.
To elucidate the long term effects of the various treatments a time-to-event analysis was performed until day 125 after tumor cell inoculation.

The subject of experiment [2] is DOHH2 DLBCL xenografts (CD20+, p53 wt). The experiment can be described thus: In vivo antitumor efficacy against DOHH2 DLBCL xenografts (Example 1). The note with it: s.c. DOHH-2 xenografts, female SCID beige mice; for TGI % (tumor growth inhibition compared to control): RG7388 30 mg/kg oral, obinutuzumab 10 mg/kg ip once weekly, GDC-0199 100 mg/kg oral, treatment days 13-29. The method, then:
The in vivo antitumor efficacy of the CD20 specific antibody obinutuzumab in combination with bcl-2 inhibitor GDC-0199 and MDM2 inhibitor RG7388 was evaluated against DOHH2 DLBCL xenografts (CD20+, p53 wt). As used herein, obinutuzumab is used synonymously with RO5072759 and B-HH6-B-KV1 GE. As used herein, said bcl-2 inhibitor GDC-0199 is the following chemical compound: 4-(4-{[2-(4-chlorophenyl)-4,4-dimethylcyclohex-1-en-1-yl]methyl}piperazin-1-yl)-2-(1H-pyrrolo[2,3-b]pyridin-5-yloxy)-N-({4-[(tetrahydro-2H-pyran-4-ylmethyl)amino]-3-[(trifluoromethyl)sulfonyl]phenyl}sulfonyl)benzamide or a salt or a polymorphic form thereof. As used herein, said MDM2 inhibitor RG7388 is the following chemical compound 4-{[(2R,3S,4R,5S)-4-(4-Chloro-2-fluoro-phenyl)-3-(3-chloro-2-fluoro-phenyl)-4-cyano-5-(2,2-dimethyl-propyl)-pyrrolidine-2-carbonyl]-amino}-3-methoxy-benzoic acid or a salt or a polymorphic form thereof.
CD20 antibody obinutuzumab was provided as stock solution from Roche, Basel, Switzerland. Antibody buffer included histidine. Antibody solution was diluted appropriately in buffer from stock prior injections. MDM2(4) inhibitor was provided as SDP formulation from Roche, Basel, Switzerland and resuspended prior to use. Bcl-2 inhibitor GDC-0199 was provided by GNE, SSF, USA and formulated prior to use.
The original DOHH-2 human B cell NHL cell line (DLBCL) was established at the NCI and purchased from ATCC (Manassas, Va., USA). Expansion of tumor cells for the transplantation was done by the TAP CompacT CellBase Cell Culture Roboter according to the protocol. Tumor cell line was routinely cultured in RPMI 1640 medium, FCS 10% and L-Glutamin 2 mM at 37° C. in a water-saturated atmosphere at 5% CO2. Culture passage was performed with trypsin/EDTA 1× splitting twice/week and passage 2 used for transplantation.
Female SCID beige mice, age 6-7 weeks at arrival, maintained under specific-pathogen-free condition with daily cycles of 12 h light/12 h darkness according to committed guidelines. Experimental study protocol was reviewed and approved by local government. After arrival animals were maintained in animal facility for one week to get accustomed to new environment and for observation. Continuous health monitoring was carried out on regular basis. Diet food and autoclaved water were provided ad libitum.
Animals were controlled daily for clinical symptoms and detection of adverse effects. For monitoring throughout the experiment body weight of animals was documented.
Animal treatment started after randomisation when median tumor size was about 200 mm^3. CD20 antibody obinutuzumab was administered as single agent and in combination at 10 mg/kg ip once weekly on days 13, 21 and 27. The corresponding vehicle was administered on the same days. MDM2(4) inhibitor RG7388 oral treatment at 30 mg/kg was done as single agent and in combination on days 13-17, 20-24 and 27-29. Finally, bcl-2 inhibitor GDC-0199 was given orally at 100 mg/kg on days 13-29 as single agent and in combination.
DOHH-2 human Diffuse Large B-cell Lymphoma (DLBCL) cells (CD20+, p53 wt) were s.c. inoculated with Matrigel onto female SCID beige mice. Tumor bearing mice were randomized 13 days later to the indicated study groups and compound treatment initiated. Tumor bearing animals were treated with vehicle control, with the MDM2(4) inhibitor RO5503781 (RG7388) at 30 mg/kg, with the anti-CD20 antibody obinutuzumab at 10 mg/kg or with bcl-2 inhibitor GDC-0199 (100 mg/kg) as single agent. Furthermore one study group received the triple combination of MDM2 inhibitor RG7388, CD20 antibody obinutuzumab and bcl-2 inhibitor GDC-0199. […] A similar efficacy was noticed after treatment with the bcl-2 inhibitor GDC-0199 (60% TGI), whereas the best efficacy as single agent was achieved after treatment with the anti-CD20 antibody obinutuzumab reaching nearly tumor stasis (TGI 90%).

In the case of “obinutuzumab: afucosylated glyco-engineered humanized B-Ly1 type II anti-CD20 IgG1 antibody, VH SEQ ID NO:7 (B-HH6), VL SEQ ID NO:20 (B-KV1)”, in experiment [1], the “Tumor growth inhibition (TGI) on day 32” value was found to be 47%, the “Tumor-free animals on Day 125” value came out at 2, the “Median time to event (Days to reach TV of 1500 mm^3)” value (from here on “Median time to event”) is 28 days and the “Number of animals with reduced tumor growth or non-responder” value amounted to 8. The “Number of animals with tumor regrowth” value in experiment [1] is reported as 0. Also, in experiment [2], the npTCR amounted to 0.17 and the “TGI % (tumor growth inhibition compared to control)” value amounted to 90%.

Turning to `CC1(C)CCC(CN2CCN(c3ccc(C(=O)NS(=O)(=O)c4ccc(NCC5CCOCC5)c([N+](=O)[O-])c4)c(Oc4cnc5[nH]ccc5c4)c3)CC2)=C(c2ccc(Cl)cc2)C1` [GDC-0199, 4-(4-{[2-(4-chlorophenyl)-4,4-dimethylcyclohex-1-en-1-yl]methyl}piperazin-1-yl)-N-({3-nitro-4-[(tetrahydro-2H-pyran-4-ylmethyl)amino]phenyl}sulfonyl)-2-(1H-pyrrolo[2,3-b]pyridin-5-yloxy)benzamide, reference compound], in experiment [1], the “Tumor growth inhibition (TGI) on day 32” value amounted to 53%, the “Tumor-free animals on Day 125” value was 0, the “Median time to event” value is 29 days and the “Number of animals with reduced tumor growth or non-responder” value was 10. Besides, the “Number of animals with tumor regrowth” value in experiment [1] is recorded as 0. Besides, in experiment [2], the npTCR was found to be 0.43 and the “TGI % (tumor growth inhibition compared to control)” value worked out at 60%.

`COc1cc(C(=O)O)ccc1NC(=O)[C@@H]1N[C@@H](CC(C)(C)C)[C@](C#N)(c2ccc(Cl)cc2F)[C@H]1c1cccc(Cl)c1F` [RG7388, 4-{[(2R,3S,4R,5S)-4-(4-Chloro-2-fluoro-phenyl)-3-(3-chloro-2-fluoro-phenyl)-4-cyano-5-(2,2-dimethyl-propyl)-pyrrolidine-2-carbonyl]-amino}-3-methoxy-benzoic acid]: in experiment [1], the “Tumor growth inhibition (TGI) on day 32” value was determined as 67%, the “Tumor-free animals on Day 125” value is reported as 0, the “Median time to event” value turned out to be 30 days and the “Number of animals with reduced tumor growth or non-responder” value is on record as 9. In experiment [1], the “Number of animals with tumor regrowth” value is 0. Further, in experiment [2], the npTCR amounted to 0.48 and the “TGI % (tumor growth inhibition compared to control)” value was found to be 56%.
